Assay results reported in ChEMBL document CHEMBL1154382, “Preliminary SAR analysis of novel antiproliferative N(6),5'-bis-ureidoadenosine derivatives” (2009).

How the values were obtained:
Assay type in all cases: functional
Settings in all cases: values are per cent of control
[1] = test system: SF-539; experiment: Antiproliferative activity against human SF539 cells at 10 uM assessed as cell growth inhibition relative to control
[2] = test system: ACHN; experiment: Antiproliferative activity against human ACHN cells at 10 uM assessed as cell growth inhibition relative to control
[3] = test system: HCT-116; experiment: Antiproliferative activity against human HCT116 cells at 10 uM assessed as cell growth inhibition relative to control
[4] = test system: M14; experiment: Antiproliferative activity against human M14 cells at 10 uM assessed as cell growth inhibition relative to control
[5] = test system: DU-145; experiment: Antiproliferative activity against human DU145 cells at 10 uM assessed as cell growth inhibition relative to control
[6] = Antiproliferative activity against human Hs 578T cells at 10 uM assessed as cell growth inhibition relative to control
[7] = test system: SK-MEL-28; experiment: Antiproliferative activity against human SK-MEL-28 cells at 10 uM assessed as cell growth inhibition relative to control
[8] = test system: MDA-MB-468; experiment: Antiproliferative activity against human MDA-MB-468 cells at 10 uM assessed as cell growth inhibition relative to control
[9] = test system: BT-549; experiment: Antiproliferative activity against human BT549 cells at 10 uM assessed as cell growth inhibition relative to control
[10] = test system: CAKI-1; experiment: Antiproliferative activity against human Caki1 cells at 10 uM assessed as cell growth inhibition relative to control
[11] = test system: UACC-62; experiment: Antiproliferative activity against human UACC62 cells at 10 uM assessed as cell growth inhibition relative to control
[12] = test system: SK-MEL-5; experiment: Antiproliferative activity against human SK-MEL-5 cells at 10 uM assessed as cell growth inhibition relative to control
[13] = test system: SF-295; experiment: Antiproliferative activity against human SF295 cells at 10 uM assessed as cell growth inhibition relative to control
[14] = test system: U-251; experiment: Antiproliferative activity against human U251 cells at 10 uM assessed as cell growth inhibition relative to control
[15] = test system: MOLT-4; experiment: Antiproliferative activity against human MOLT4 cells at 10 uM assessed as cell growth inhibition relative to control
[16] = test system: SF-268; experiment: Antiproliferative activity against human SF268 cells at 10 uM assessed as cell growth inhibition relative to control
[17] = test system: SK-MEL-2; experiment: Antiproliferative activity against human SK-MEL-2 cells at 10 uM assessed as cell growth inhibition relative to control
[18] = test system: K562; experiment: Antiproliferative activity against human K562 cells at 10 uM assessed as cell growth inhibition relative to control
[19] = test system: HCC 2998; experiment: Antiproliferative activity against human HCC2998 cells at 10 uM assessed as cell growth inhibition relative to control
[20] = test system: TK-10; experiment: Antiproliferative activity against human TK10 cells at 10 uM assessed as cell growth inhibition relative to control
[21] = test system: HT-29; experiment: Antiproliferative activity against human HT-29 cells at 10 uM assessed as cell growth inhibition relative to control
[22] = test system: PC-3; experiment: Antiproliferative activity against human PC3 cells at 10 uM assessed as cell growth inhibition relative to control
[23] = test system: 786-0; experiment: Antiproliferative activity against human 786-0 cells at 10 uM assessed as cell growth inhibition relative to control
[24] = test system: KM12; experiment: Antiproliferative activity against human KM12 cells at 10 uM assessed as cell growth inhibition relative to control
[25] = test system: LOX IMVI; experiment: Antiproliferative activity against human LOXIMVI cells at 10 uM assessed as cell growth inhibition relative to control
[26] = test system: CCRF-CEM; experiment: Antiproliferative activity against human CCRF-CEM cells at 10 uM assessed as cell growth inhibition relative to control
[27] = test system: MCF7; experiment: Antiproliferative activity against human MCF7 cells at 10 uM assessed as cell growth inhibition relative to control
[28] = test system: HOP-62; experiment: Antiproliferative activity against human HOP62 cells at 10 uM assessed as cell growth inhibition relative to control
[29] = test system: COLO 205; experiment: Antiproliferative activity against human COLO205 cells at 10 uM assessed as cell growth inhibition relative to control
[30] = test system: NCI-H226; experiment: Antiproliferative activity against human NCI-H226 cells at 10 uM assessed as cell growth inhibition relative to control
[31] = test system: NCI-H23; experiment: Antiproliferative activity against human NCI-H23 cells at 10 uM assessed as cell growth inhibition relative to control
[32] = test system: A498; experiment: Antiproliferative activity against human A498 cells at 10 uM assessed as cell growth inhibition relative to control
[33] = test system: UACC-257; experiment: Antiproliferative activity against human UACC257 cells at 10 uM assessed as cell growth inhibition relative to control
[34] = test system: MDA-MB-231; experiment: Antiproliferative activity against human MDA-MB-231 cells at 10 uM assessed as cell growth inhibition relative to control
[35] = test system: NCI-H322M; experiment: Antiproliferative activity against human NCI-H322M cells at 10 uM assessed as cell growth inhibition relative to control
[36] = test system: NCI-H522; experiment: Antiproliferative activity against human NCI-H522 cells at 10 uM assessed as cell growth inhibition relative to control
[37] = test system: NCI-H460; experiment: Antiproliferative activity against human NCI-H460 cells at 10 uM assessed as cell growth inhibition relative to control
[38] = Antiproliferative activity against human […] cells at 10 uM assessed as cell growth inhibition relative to control
[39] = test system: HL-60(TB); experiment: Antiproliferative activity against human HL-60(TB) cells at 10 uM assessed as cell growth inhibition relative to control
[40] = test system: OVCAR-5; experiment: Antiproliferative activity against human OVCAR5 cells at 10 uM assessed as cell growth inhibition relative to control
[41] = test system: OVCAR-4; experiment: Antiproliferative activity against human OVCAR4 cells at 10 uM assessed as cell growth inhibition relative to control
[42] = test system: SK-OV-3; experiment: Antiproliferative activity against human SKOV3 cells at 10 uM assessed as cell growth inhibition relative to control
[43] = test system: SW-620; experiment: Antiproliferative activity against human SW620 cells at 10 uM assessed as cell growth inhibition relative to control
[44] = test system: Malme-3M; experiment: Antiproliferative activity against human MALME-3M cells at 10 uM assessed as cell growth inhibition relative to control
[45] = test system: EKVX; experiment: Antiproliferative activity against human EKVX cells at 10 uM assessed as cell growth inhibition relative to control
[46] = test system: SNB-75; experiment: Antiproliferative activity against human SNB75 cells at 10 uM assessed as cell growth inhibition relative to control
[47] = test system: A549; experiment: Antiproliferative activity against human A549 cells at 10 uM assessed as cell growth inhibition relative to control
[48] = test system: SN12C; experiment: Antiproliferative activity against human SN12C cells at 10 uM assessed as cell growth inhibition relative to control
[49] = test system: T47D; experiment: Antiproliferative activity against human T47D cells at 10 uM assessed as cell growth inhibition relative to control
[50] = test system: RXF 393; experiment: Antiproliferative activity against human RXF393 cells at 10 uM assessed as cell growth inhibition relative to control
[51] = test system: HCT-15; experiment: Antiproliferative activity against human HCT15 cells at 10 uM assessed as cell growth inhibition relative to control
[52] = test system: SNB-19; experiment: Antiproliferative activity against human SNB19 cells at 10 uM assessed as cell growth inhibition relative to control
[53] = test system: HOP-92; experiment: Antiproliferative activity against human HOP92 cells at 10 uM assessed as cell growth inhibition relative to control
[54] = test system: OVCAR-3; experiment: Antiproliferative activity against human OVCAR-3 cells at 10 uM assessed as cell growth inhibition relative to control
[55] = test system: UO-31; experiment: Antiproliferative activity against human UO31 cells at 10 uM assessed as cell growth inhibition relative to control
[56] = test system: IGROV-1; experiment: Antiproliferative activity against human IGROV1 cells at 10 uM assessed as cell growth inhibition relative to control
[57] = test system: OVCAR-8; experiment: Antiproliferative activity against human OVCAR8 cells at 10 uM assessed as cell growth inhibition relative to control

CCOC(=O)C[C@H]1[C@@H](O[Si](C)(C)C(C)(C)C)[C@H](n2cnc3c(NC(=O)Nc4ccccc4)ncnc32)O[C@@H]1CN=[N+]=[N-]
growth, % of control at 10 µM [1]: 89%
growth, % of control at 10 µM [2]: 92%
growth, % of control at 10 µM [3]: 82%
growth, % of control at 10 µM [4]: 101%
growth, % of control at 10 µM [5]: 105%
growth, % of control at 10 µM [6]: 92%
growth, % of control at 10 µM [7]: 116%
growth, % of control at 10 µM [8]: 95%
growth, % of control at 10 µM [9]: 100%
growth, % of control at 10 µM [10]: 87%
growth, % of control at 10 µM [11]: 83%
growth, % of control at 10 µM [12]: 104%
growth, % of control at 10 µM [13]: 94%
growth, % of control at 10 µM [14]: 95%
growth, % of control at 10 µM [15]: 79%
growth, % of control at 10 µM [16]: 95%
growth, % of control at 10 µM [17]: 91%
growth, % of control at 10 µM [18]: 72%
growth, % of control at 10 µM [19]: 121%
growth, % of control at 10 µM [20]: 103%
growth, % of control at 10 µM [21]: 104%
growth, % of control at 10 µM [22]: 64%
growth, % of control at 10 µM [23]: 89%
growth, % of control at 10 µM [24]: 101%
growth, % of control at 10 µM [25]: 96%
growth, % of control at 10 µM [26]: 63%
growth, % of control at 10 µM [27]: 85%
growth, % of control at 10 µM [28]: 98%
growth, % of control at 10 µM [29]: 114%
growth, % of control at 10 µM [30]: 62%
growth, % of control at 10 µM [31]: 97%
growth, % of control at 10 µM [32]: 121%
growth, % of control at 10 µM [33]: 88%
growth, % of control at 10 µM [34]: 95%
growth, % of control at 10 µM [35]: 99%
growth, % of control at 10 µM [36]: 90%
growth, % of control at 10 µM [37]: 104%
growth, % of control at 10 µM [38]: 75%
growth, % of control at 10 µM [39]: 51%
growth, % of control at 10 µM [40]: 107%
growth, % of control at 10 µM [41]: 66%
growth, % of control at 10 µM [42]: 101%
growth, % of control at 10 µM [43]: 101%
growth, % of control at 10 µM [44]: 97%
growth, % of control at 10 µM [45]: 89%
growth, % of control at 10 µM [46]: 73%
growth, % of control at 10 µM [47]: 103%
growth, % of control at 10 µM [48]: 81%
growth, % of control at 10 µM [49]: 73%
growth, % of control at 10 µM [50]: 111%
growth, % of control at 10 µM [51]: 84%
growth, % of control at 10 µM [52]: 92%
growth, % of control at 10 µM [53]: 100%
growth, % of control at 10 µM [54]: 111%
growth, % of control at 10 µM [55]: 83%
growth, % of control at 10 µM [56]: 93%
growth, % of control at 10 µM [57]: 98%
